Assay results taken from patent US10793567B2, “Bicyclic inhibitors of histone deacetylase” (Rodin Therapeutics, Inc., priority 2017, dated 2020).

How the values were obtained:
[1] = biological target: T1, HDAC2 (Homo sapiens (Human), UniProt Q92769); test: HDAC2 enzymatic assay (Caliper LabChip, peptide deacetylation); type: biochemical; details: 17 hours, 25° C.
Method: The following describes an assay protocol for measuring the deacetylation of a peptide substrate by the enzymes HDAC2 or HDAC1. Enzyme, substrate, and cofactors are combined in a well of a microtiter plate and incubated for […] at 25° C. At the end of the incubation, the reaction is quenched by the addition of an SDS-containing buffer. Substrate and product are separated and quantified electrophoretically using the microfluidic-based LabChip 3000 Drug Discovery System from Caliper Life Sciences. The peptide substrate used in this assay is FAM-TSRHK(AC)KL-CONH2 (FAM is carboxyfluorescein). Peptide should be >98% purity by Capillary Electrophoresis. • 1. To a well of a 384-well plate, add 5 μL of 2× enzyme buffer. Using Labcyte Echo 550, add 100 nl compound. Enzyme and compound may be pre-incubated at this time if desired. • 2. Add 5 μL of 2× substrate buffer. • 3. Incubate plate at 25° C. for 17 hours. • 4. Terminate reaction by adding 40 μL of 1.55× stop buffer. • 5. Create job on a Caliper LabChip® 3000 Drug Discovery System. • 6. […]
Substrate and product peptides present in each sample are separated electrophoretically using the LabChip 3000 capillary electrophoresis instrument. As substrate and product peptides are separated, two peaks of fluorescence are observed. Change in the relative fluorescence intensity of the substrate and product peaks is the parameter measured, reflecting enzyme activity. Capillary electrophoregramms (RDA acquisition files) are analyzed using HTS Well Analyzer software (Caliper Life Sciences). The […] in each sample is determined as the product to sum ratio (PSR): P/(S+P), where P is the peak height of the product peptide and S is the peak height of the substrate peptide. For each compound, enzyme activity is measured at various concentrations (12 concentrations of compound spaced by 3× dilution intervals). […]
The IC50 values of inhibitors are determined by fitting the inhibition curves (Pinh versus inhibitor concentration) by 4 parameter sigmoidal dose-response model using XLfit 4 software (IBDS). […]

[2] = biological target: T1, HDAC2; test: HDAC2 enzymatic inhibition assay in SY5Y cell lysate (HDAC-Glo 2); type: cell-based; details: SH-SY5Y cells, five hours incubation
Method: SH-SY5Y cells (Sigma) were cultured in Eagle's Modified Essential Medium supplemented with 10% fetal bovine serum and pen/strep. Twenty-four hours prior to compound dosing 20 uL of cells were plated in white 384 well plates at a density of 1,500 cells/well. Compounds were serially diluted in neat DMSO and then diluted 1:100 v/v into media without FBS and mixed. Media was removed from the plated cells and the diluted compounds in serum free media (1% v/v final DMSO) were added and incubated at 37.0 for five hours. Ten uL of HDAC-Glo 2 reagent with 0.1% Triton X-100 was then added, the plate was mixed and allowed to develop at room temperature for 100 minutes. Plates were then read with a Spectramax LMax luminometer employing a 0.4 s integration time. Dose response curves were constructed with normalized data where CI-994 at 100 uM was defined as 100% inhibition and DMSO alone as 0% inhibition.

T1 sequence (Q92769 whole entry): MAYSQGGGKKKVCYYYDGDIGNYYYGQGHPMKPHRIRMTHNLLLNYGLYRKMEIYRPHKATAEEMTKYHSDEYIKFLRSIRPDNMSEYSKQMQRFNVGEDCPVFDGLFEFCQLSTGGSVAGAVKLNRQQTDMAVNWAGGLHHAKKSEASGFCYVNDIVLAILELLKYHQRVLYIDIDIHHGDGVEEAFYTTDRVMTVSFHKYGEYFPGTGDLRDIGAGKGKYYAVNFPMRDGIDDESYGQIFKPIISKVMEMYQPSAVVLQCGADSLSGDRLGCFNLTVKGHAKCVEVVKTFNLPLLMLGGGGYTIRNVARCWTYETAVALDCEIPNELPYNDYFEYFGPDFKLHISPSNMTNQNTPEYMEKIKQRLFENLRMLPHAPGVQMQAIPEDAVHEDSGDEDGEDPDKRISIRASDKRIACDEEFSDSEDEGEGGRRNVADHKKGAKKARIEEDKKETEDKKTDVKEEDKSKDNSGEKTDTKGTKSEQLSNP

Compound	IC50 [1] [µM]	IC50 [2] [µM]
CCc1cc2c(cn1)CN(C(=O)Nc1nc(-c3cccnc3)ccc1N)C2 [Compound 8]	0.5 to 5	0.1 to 1
CCc1ncc2c(n1)CN(C(=O)Nc1nc(-c3ccc(F)cc3)ccc1N)C2 [Compound 17]	0.5 to 5	1 to 1.5
CCc1ncc2c(n1)CN(C(=O)Nc1nc(-c3cccs3)ccc1N)C2 [Compound 3]	–	0.1 to 1
Cc1ncc2c(n1)CN(C(=O)Nc1nc(-c3ccc(F)s3)ccc1N)C2 [Compound 2]	–	1 to 1.5
Cc1cc2c(cn1)CN(C(=O)Nc1nc(-c3cccnc3)ccc1N)C2 [Compound 12]	–	0.1 to 1
COCCn1cc2c(n1)CN(C(=O)Nc1nc(-c3ccc(F)cc3F)ccc1N)C2 [Compound 9]	–	0.1 to 1
Cc1ncc(-c2ccc(N)c(NC(=O)N3Cc4cn(CC(F)F)nc4C3)n2)s1 [Compound 5]	–	0.1 to 1
Nc1ccc(-c2ccc(F)cc2)nc1NC(=O)N1Cc2cn(C3COC3)nc2C1 [Compound 1]	–	0.1 to 1
Cc1ncc2c(n1)CN(C(=O)Nc1nc(-c3ccc(F)cc3)ccc1N)C2 [Compound 14]	–	0.1 to 1
